Data as given in patent publication US7563903B2, “Acylaminothiazole derivatives, their preparation and their therapeutic use” (Sanofi-Aventis, priority 2003, dated 2009).

Target: T1, gamma-secretase (Homo sapiens, UniProt P49768, M146L)
T1 construct: expressed in transfected cells; host or cells: CHO-K1 (clone 30-12)
Experiment: β-amyloid cellular trial: inhibition of β-amyloid peptide (β-A4) production, ELISA
Type: cell-based
Conditions: CHO-K1 line coexpressing the CT100 of APP and PSI M146L clone 30-12, 24-25 h incubation, ELISA of supernatants, read-out: EC50 (50% effective concentration)
Description: For the β-amyloid cellular trial, the CHO-K1 line coexpressing the CT100 of APP and PSI M146L clone 30-12 is used. The line targets the inhibition of gamma-secretase. Presenilin is linked to the gamma-secretase activity (Wolfe M S, Haass C., The Role of presenilins in gamma-secretase activity, J. Biol. Chem., Feb. 23, 2001 276(8), 5413-6) and its coexpression with the amyloid protein or its N-terminal fragment causes an increase in the secretion of the A1-42 peptide (β-A4) thus generating a pharmacological tool which makes it possible to evaluate inhibition by the compounds of formula (I) of the production of the β-A4 peptide. The inoculation of the 96-well culture plates is carried out at the rate of 1×10^5 cells per well in 150 μl of incubation medium. […]
The quantity of bound peptide is detected in an indirect manner in the presence of a competitor corresponding to the truncated peptide, peptide 1-28 coupled to biotin which is then detected with streptavidin coupled to alkaline phosphatase. The substrate, p-Nitrophenyl Phosphate (pNPP FAST p-Nitrophenyl Phosphate, Sigma N2770), gives a yellow soluble reaction product which can be read at 405 nm. […] After incubating for 30 minutes at room temperature, the reaction is stopped by the addition of 100 μl per well of 0.1M EDTA and the reading is carried out at 405 nm.

`CCC[C@H](NC(=O)[C@@H](O)C(C)(C)C)C(=O)Nc1ncc(-c2ccccc2COc2ccc(Cl)c(Cl)c2)s1` [compound 50, (2S)—N-(5-{2-[(3,4-dichlorophenoxy)methyl]phenyl}-1,3-thiazol-2-yl)-2-{[(2S)-2-hydroxy-3,3-dimethylbutanoyl]amino}pentanamide] was tested, and the EC50 was 295 nM.
